This is an account of results in patent US8008298B2, “Pyrrolopyrazine kinase inhibitors” (Roche Palo Alto, priority 2008, dated 2011).

Broadly, the melting point is the temperature, or range, at which the solid turns liquid.

Compound `CC(C)(C)C(=O)c1c[nH]c2ncc(-c3cccc(N)c3)nc12` [Example 226, 1-[2-(3-Amino-phenyl)-5H-pyrrolo[2,3-b]pyrazin-7-yl]-2,2-dimethyl-propan-1-one] gave a melting point of 239 to 241 °C. With `CCNc1cccc(-c2cnc3[nH]cc(C(=O)C(C)(C)C)c3n2)c1` [Example 227, 1-[2-(3-Ethylamino-phenyl)-5H-pyrrolo[2,3-b]pyrazin-7-yl]-2,2-dimethyl-propan-1-one] the figure was 189 to 191 °C. Then `CC(=O)Nc1cccc(-c2cnc3[nH]cc(C(=O)C(C)(C)C)c3n2)c1` [Example 228, N-{3-[7-(2,2-Dimethyl-propionyl)-5H-pyrrolo[2,3-b]pyrazin-2-yl]-phenyl}-acetamide], with 249 to 250 °C; and `CC(C)(C)C(=O)c1c[nH]c2ncc(-c3cccc(N4CCS(=O)(=O)CC4)c3)nc12` [Example 230, 1-{2-[3-(1,1-Dioxo-1lambda*6*-thiomorpholin-4-yl)-phenyl]-5H-pyrrolo[2,3-b]pyrazin-7-yl}-2,2-dimethyl-propan-1-one], with 279 to 280 °C; and `CC(C)(C)C(=O)c1c[nH]c2ncc(-c3cccc(-n4cccc4)c3)nc12` [Example 232, 2,2-Dimethyl-1-[2-(3-pyrrol-1-yl-phenyl)-5H-pyrrolo[2,3-b]pyrazin-7-yl]-propan-1-one], with 220 to 222 °C. Consider `CC(C)(C)C(=O)c1c[nH]c2ncc(-c3cccc(NS(=O)(=O)c4ccccc4)c3)nc12` [Example 234, N-{3-[7-(2,2-Dimethyl-propionyl)-5H-pyrrolo[2,3-b]pyrazin-2-yl]-phenyl}-benzenesulfonamide], for which the melting point was 217 to 219 °C. With `CC(C)(C)C(=O)c1c[nH]c2ncc(-c3cccc(NS(=O)(=O)c4ccc(N)cc4)c3)nc12` [Example 235, 4-Amino-N-{3-[7-(2,2-dimethyl-propionyl)-5H-pyrrolo[2,3-b]pyrazin-2-yl]-phenyl}-benzenesulfonamide] the figure was 285 to 286 °C. For `CC(C)(C)C(=O)c1c[nH]c2ncc(-c3cccc(NC4=NCCN4)c3)nc12` [Example 236, 1-{2-[3-(4,5-Dihydro-1H-imidazol-2-ylamino)-phenyl]-5H-pyrrolo[2,3-b]pyrazin-7-yl}-2,2-dimethyl-propan-1-one], the melting point was 228 to 230 °C. With `CC(C)(C)C(=O)c1c[nH]c2ncc(-c3cccc(C#N)c3)nc12` [Example 237, 3-[7-(2,2-Dimethyl-propionyl)-5H-pyrrolo[2,3-b]pyrazin-2-yl]-benzonitrile] the figure was 248 to 249 °C; with `COc1cc(-c2cnc3[nH]cc(C(=O)N4CCCC4)c3n2)cc(OC)c1OC` [Example 240, Pyrrolidin-1-yl-[2-(3,4,5-trimethoxy-phenyl)-5H-pyrrolo[2,3-b]pyrazin-7-yl]-methanone], 210 to 212 °C; with `CCOc1cc(-c2cnc3[nH]cc(C(=O)C(C)(C)C)c3n2)cc(N2CCCC2)c1` [Example 262, 1-[2-(3-Ethoxy-5-pyrrolidin-1-yl-phenyl)-5H-pyrrolo[2,3-b]pyrazin-7-yl]-2,2-dimethyl-propan-1-one], 236 to 237 °C. With `CC(C)(C)C(=O)c1c[nH]c2ncc(-c3cc(OCCS(C)(=O)=O)cc(N4CCCC4)c3)nc12` [Example 267, 1-{2-[3-(2-Methanesulfonyl-ethoxy)-5-pyrrolidin-1-yl-phenyl]-5H-pyrrolo[2,3-b]pyrazin-7-yl}-2,2-dimethyl-propan-1-one], the melting point is 230 to 232 °C.

For `COc1cc(-c2cnc3[nH]cc(C(=O)C(C)(C)C)c3n2)cc(N2CC[S+]([O-])CC2)c1` [Example 269, 1-{2-[3-Methoxy-5-(1-oxo-1lambda*4*-thiomorpholin-4-yl)-phenyl]-5H-pyrrolo[2,3-b]pyrazin-7-yl}-2,2-dimethyl-propan-1-one], the melting point fell in the range of 259 to 260 °C.

Compound `Cn1nccc1-c1ccc(-c2cnc3[nH]cc(C(=O)C(C)(C)C)c3n2)cc1` [Example 281, 2,2-Dimethyl-1-{2-[4-(2-methyl-2H-pyrazol-3-yl)-phenyl]-5H-pyrrolo[2,3-b]pyrazin-7-yl}-propan-1-one] registered a melting point of 257 to 258 °C. With `CC(C)(C)C(=O)c1c[nH]c2ncc(-c3cccc(N4CC5(COC5)C4)c3)nc12` [Example 282, 2,2-dimethyl-1-{2-[3-(2-oxa-6-aza-spiro[3.3]hept-6-yl)-phenyl]-5H-pyrrolo[2,3-b]pyrazin-7-yl}-propan-1-one] the figure was 260 to 262 °C; with `CC1(C(=O)c2c[nH]c3ncc(-c4cccc(N5CCCC5=O)c4)nc23)CCCCC1` [Example 283, 1-{3-[7-(1-methyl-cyclohexanecarbonyl)-5H-pyrrolo[2,3-b]pyrazin-2-yl]-phenyl}-pyrrolidin-2-one], 215 to 217 °C. With `COc1ccc(F)cc1-c1cnc2[nH]cc(C(=O)CC(C)C)c2n1` [Example I-5, 1-[2-(5-Fluoro-2-methoxy-phenyl)-5H-pyrrolo[2,3-b]pyrazin-7-yl]-3-methyl-butan-1-one] the figure was 186 to 187 °C. With `CC(C)CC(=O)c1c[nH]c2ncc(-c3cccc(N4CCCC4)c3)nc12` [Example I-6, 3-Methyl-1-[2-(3-pyrrolidin-1-yl-phenyl)-5H-pyrrolo[2,3-b]pyrazin-7-yl]-butan-1-one] the figure was 260 to 261 °C; with `CNC(=O)c1cccc(-c2cnc3[nH]cc(C(=O)CC(C)C)c3n2)c1` [Example I-9, N-Methyl-3-[7-(3-methyl-butyryl)-5H-pyrrolo[2,3-b]pyrazin-2-yl]-benzamide], 243 to 244 °C; with `CC(C)(C)C(=O)c1c[nH]c2ncc(-c3ccc(OCCN4CCOCC4)cc3)nc12` [Example I-40, 2,2-Dimethyl-1-{2-[4-(2-morpholin-4-yl-ethoxy)-phenyl]-5H-pyrrolo[2,3-b]pyrazin-7-yl}-propan-1-one], 198.4 to 202.7 °C. Take `CC(C)(C)C(=O)c1c[nH]c2ncc(-c3cccc(OCCN4CCOCC4)c3)nc12` [Example I-41, 2,2-Dimethyl-1-{2-[3-(2-morpholin-4-yl-ethoxy)-phenyl]-5H-pyrrolo[2,3-b]pyrazin-7-yl}-propan-1-one]: the melting point is 152.9 to 154.7 °C. Then `CC(C)(C)OC(=O)N1CCN(c2cccc(-c3cnc4[nH]cc(C(=O)C(C)(C)C)c4n3)c2)CC1` [Example I-44, 4-{3-[7-(2,2-Dimethyl-propionyl)-5H-pyrrolo[2,3-b]pyrazin-2-yl]-phenyl}-piperazine-1-carboxylic acid tert-butyl ester], with 215.2 to 215.8 °C; and `CC(C)(C)C(=O)c1c[nH]c2ncc(-c3ccc(N4CCNCC4)cc3)nc12` [Example I-45, 2,2-Dimethyl-1-[2-(4-piperazin-1-yl-phenyl)-5H-pyrrolo[2,3-b]pyrazin-7-yl]-propan-1-one], with 234 to 246 °C; and `CC(C)(C)C(=O)c1c[nH]c2ncc(-c3cccc(N4CCNCC4)c3)nc12` [Example I-46, 2,2-Dimethyl-1-[2-(3-piperazin-1-yl-phenyl)-5H-pyrrolo[2,3-b]pyrazin-7-yl]-propan-1-one], with 216 to 222 °C. Then `CC(=O)N1CCN(c2ccc(-c3cnc4[nH]cc(C(=O)C(C)(C)C)c4n3)cc2)CC1` [Example I-99, 1-{2-[4-(4-Acetyl-piperazin-1-yl)-phenyl]-5H-pyrrolo[2,3-b]pyrazin-7-yl}-2,2-dimethyl-propan-1-one], with 266 to 267 °C. With `CC(=O)N1CCN(c2cccc(-c3cnc4[nH]cc(C(=O)C(C)(C)C)c4n3)c2)CC1` [Example I-100, 1-{2-[3-(4-Acetyl-piperazin-1-yl)-phenyl]-5H-pyrrolo[2,3-b]pyrazin-7-yl}-2,2-dimethyl-propan-1-one] the figure was 238 to 239 °C; with `CC(C)(C)C(=O)c1c[nH]c2ncc(-c3cccc(-n4cccn4)c3)nc12` [Example I-115, 2,2-Dimethyl-1-[2-(3-pyrazol-1-yl-phenyl)-5H-pyrrolo[2,3-b]pyrazin-7-yl]-propan-1-one], 219.3 to 221.1 °C.

The compound `CC(C)(C)C(=O)c1c[nH]c2ncc(-c3cccc(-c4ccn[nH]4)c3)nc12` [Example I-126, 2,2-Dimethyl-1-{2-[3-(2H-pyrazol-3-yl)-phenyl]-5H-pyrrolo[2,3-b]pyrazin-7-yl}-propan-1-one] returned a melting point of 277 to 278 °C. Consider `CNC(=O)c1cccc(-c2cnc3[nH]cc(C(=O)C(C)(C)C)c3n2)c1` [Example I-129, 3-[7-(2,2-Dimethyl-propionyl)-5H-pyrrolo[2,3-b]pyrazin-2-yl]-N-methyl-benzamide], for which the melting point lay in the range of 257 to 258 °C. Take `COCc1cccc(-c2cnc3[nH]cc(C(=O)C(C)(C)C)c3n2)c1` [Example I-130, 1-[2-(3-Methoxymethyl-phenyl)-5H-pyrrolo[2,3-b]pyrazin-7-yl]-2,2-dimethyl-propan-1-one]: the melting point lay within 143 to 144 °C. With `COCc1ccc(-c2cnc3[nH]cc(C(=O)C(C)(C)C)c3n2)cc1` [Example I-132, 1-[2-(4-Methoxymethyl-phenyl)-5H-pyrrolo[2,3-b]pyrazin-7-yl]-2,2-dimethyl-propan-1-one], the melting point lay in the range of 191 to 192 °C. `COc1ccccc1-c1cnc2[nH]cc(C(=O)C(C)(C)C)c2n1` [Example I-133, 1-[2-(2-Methoxy-phenyl)-5H-pyrrolo[2,3-b]pyrazin-7-yl]-2,2-dimethyl-propan-1-one] had a melting point of 199.5 to 200.7 °C. With `COc1cccc(-c2cnc3[nH]cc(C(=O)C(C)(C)C)c3n2)c1` [Example I-134, 1-[2-(3-Methoxy-phenyl)-5H-pyrrolo[2,3-b]pyrazin-7-yl]-2,2-dimethyl-propan-1-one] the figure was 197.4 to 198.8 °C. Then `CC(C)(C)C(=O)c1c[nH]c2ncc(-c3cccc(C(=O)NC4CCCC4)c3)nc12` [Example I-136, N-Cyclopentyl-3-[7-(2,2-dimethyl-propionyl)-5H-pyrrolo[2,3-b]pyrazin-2-yl]-benzamide], with 227 to 228.5 °C; and `CC(C)(C)C(=O)c1c[nH]c2ncc(-c3cccc(O)c3)nc12` [Example I-141, 1-[2-(3-Hydroxy-phenyl)-5H-pyrrolo[2,3-b]pyrazin-7-yl]-2,2-dimethyl-propan-1-one], with 267 to 268 °C.
